From ChEMBL document CHEMBL5126551, “Spiral molecules with antimalarial activities: A review” (Eur J Med Chem, 2022) come the findings set out here.

pEC50, pIC50: −log10 of the molar value. Converted amounts (≈) assume the structure as drawn.

Assay [1] concerns Plasmodium falciparum. Put plainly: Antimalarial activity against Plasmodium falciparum Dd2 infected in human erythrocytes assessed as reduction in parasite growth measured after 72 hrs by microscopic analysis. The format is functional, organism-based. The note with it: Dd2, Erythrocyte.
Assay [2] concerns Plasmodium falciparum. Description: Antimalarial activity against Plasmodium falciparum 3D7 infected in human erythrocytes assessed as reduction in parasite growth measured after 72 hrs by microscopic analysis. As to conditions: 3D7, Erythrocyte. The format is functional, organism-based.
Assay [3] has as its system Plasmodium falciparum. Put plainly: Antimalarial activity against chloroquine-resistant Plasmodium falciparum W2 assessed as inhibition of parasite growth. The format is functional, organism-based.
Assay [4] relates to Plasmodium falciparum. Description: Antimalarial activity against chloroquine-sensitive Plasmodium falciparum D6 assessed as inhibition of parasite growth. The format is functional, organism-based.
Assay [5] deals with Plasmodium falciparum. Put plainly: Antimalarial activity against chloroquine-sensitive Plasmodium falciparum 3D7 assessed as reduction in parasite growth incubated for 72 hrs by SYBR green I-based DNA quantification assay. The format is functional, organism-based. As to conditions: 3D7, 72 h.
Assay [6] relates to Plasmodium falciparum. Put plainly: Antimalarial activity against Plasmodium falciparum K1 infected in human red blood cells assessed as inhibition of parasite growth incubated for 48 hrs by Giema staining based assay. The format is functional, organism-based, Red blood cell. The note with it: K1, Erythrocyte.
The subject of assay [7] is Plasmodium falciparum. Description: Antimalarial activity against chloroquine-resistant Plasmodium falciparum FCB-2 infected in human erythrocyte assessed as inhibition of parasite growth incubated for 48 hrs by [3H]-hypoxanthine incorporation assay based liquid scintillation counter method. The note with it: FCB-2, Erythrocyte. The format is functional, organism-based.

For assay [8], the system named is Plasmodium falciparum. Put plainly: Antimalarial activity against chloroquine, amodiaquine, quinine and artesunate-resistant Plasmodium falciparum NF-54 infected in human erythrocyte assessed as inhibition of parasite growth incubated for 48 hrs by [3H]-hypoxanthine incorporation assay based liquid scintillation counter method. The format is functional, organism-based. The note with it: NF-54, Erythrocyte.

Assay [9] relates to Plasmodium falciparum. Put plainly: Antimalarial activity against Plasmodium falciparum infected in human […] assessed as inhibition of parasite growth incubated for 30 hrs by [3H]-hypoxanthine incorporation assay based liquid scintillation spectrometric method. The format is functional, organism-based.
The test system of assay [10] is Plasmodium falciparum. Description: Antimalarial activity against chloroquine-sensitive Plasmodium falciparum 3D7 infected in human erythrocyte assessed as inhibition of parasite growth incubated for 66 hrs by [3H]-hypoxanthine incorporation assay based liquid scintillation spectrometric method. The format is functional, organism-based. As to conditions: 3D7, Erythrocyte.

The test system of assay [11] is Plasmodium falciparum. Description: Antimalarial activity against chloroquine-sensitive Plasmodium falciparum NF54 infected in human red blood cells assessed as reduction in parasite growth incubated for 72 hrs by SYBR green I-based DNA quantification assay. The format is functional, organism-based, Red blood cell. As to conditions: NF54, Erythrocyte.
The subject of assay [12] is Plasmodium falciparum. Put plainly: Antimalarial activity against multidrug-resistant Plasmodium falciparum Dd2 infected in human red blood cells assessed as reduction in parasite growth incubated for 72 hrs by SYBR green I-based DNA quantification assay. The format is functional, organism-based, Red blood cell. The note with it: Dd2, Erythrocyte.
Assay [13] relates to Plasmodium falciparum. Description: Antimalarial activity against chloroquine-sensitive Plasmodium falciparum 3D7 infected in human red blood cells assessed as reduction in parasite growth incubated for 72 hrs by SYBR green I-based DNA quantification assay. The format is functional, organism-based, Red blood cell. The note with it: 3D7, Erythrocyte.
The subject of assay [14] is Plasmodium falciparum. Put plainly: Antimalarial activity against chloroquine resistant Plasmodium falciparum K1 assessed as inhibition of parasite growth incubated for 72 hrs by HRP2-based ELISA assay. The format is functional, organism-based. The note with it: K1, 72 h.
Assay [15] concerns Plasmodium falciparum. Put plainly: Antimalarial activity against multidrug-resistant early ring stage Plasmodium falciparum K14 infected in human erythrocytes assessed as inhibition of parasite growth incubated for 48 hrs by [3H]-hypoxanthine incorporation assay. The format is functional, organism-based. The note with it: K14, Erythrocyte.
Assay [16] has as its system Plasmodium falciparum. Put plainly: Antimalarial activity against drug-sensitive Plasmodium falciparum FCR3 assessed as inhibition of parasite growth. The format is functional, organism-based.
The test system of assay [17] is Plasmodium falciparum. Description: Antimalarial activity against drug-resistant Plasmodium falciparum K1 assessed as inhibition of parasite growth. The format is functional, organism-based.
Assay [18] has as its system Plasmodium falciparum. Description: Antimalarial activity against Plasmodium falciparum 3D7 assessed as inhibition of parasite growth. The format is functional, organism-based.
For assay [19], the system named is Plasmodium falciparum. Put plainly: Antimalarial activity against Plasmodium falciparum 7G8 assessed as inhibition of parasite growth. The format is functional, organism-based.
The test system of assay [20] is Plasmodium falciparum. Description: Antimalarial activity against Plasmodium falciparum D6 assessed as inhibition of parasite growth. The format is functional, organism-based.
In assay [21] the test system is Plasmodium falciparum. Put plainly: Antimalarial activity against Plasmodium falciparum FCB assessed as inhibition of parasite growth. The format is functional, organism-based.
For assay [22], the system named is Plasmodium falciparum. Description: Antimalarial activity against Plasmodium falciparum 1 assessed as inhibition of parasite growth. The format is functional, organism-based.
In assay [23] the test system is Plasmodium falciparum. Description: Antimalarial activity against Plasmodium falciparum HB3 assessed as inhibition of parasite growth. The format is functional, organism-based.
Assay [24] deals with Plasmodium falciparum. Put plainly: Antimalarial activity against Plasmodium falciparum Dd2 assessed as inhibition of parasite growth. The format is functional, organism-based.
Assay [25] has as its system Plasmodium falciparum. Description: Antimalarial activity against Plasmodium falciparum TM90C2B assessed as inhibition of parasite growth. The format is functional, organism-based.
Assay [26] deals with Plasmodium falciparum. Description: Antimalarial activity against Plasmodium falciparum V1/S assessed as inhibition of parasite growth. The format is functional, organism-based.
The subject of assay [27] is Plasmodium falciparum. Description: Antimalarial activity against chloroquine and pyrimethamine resistant Plasmodium falciparum K1 infected in human red blood cells assessed as inhibition of parasite growth incubated for 72 hrs by [3H]-hypoxanthine incorporation assay based liquid scintillation counter method. The format is functional, organism-based, Red blood cell. As to conditions: K1, Erythrocyte.

Assay [28] deals with Plasmodium falciparum. Description: Antimalarial activity against chloroquine-sensitive Plasmodium falciparum NF54 infected in human red blood cells assessed as inhibition of parasite growth incubated for 72 hrs by [3H]-hypoxanthine incorporation assay based liquid scintillation counter method. The format is functional, organism-based, Red blood cell. As to conditions: NF54, Erythrocyte.

For assay [29], the system named is Plasmodium falciparum. Put plainly: Antimalarial activity against Plasmodium falciparum Cam3.I^R539T assessed as inhibition of parasite growth measured after 6 hrs. The format is functional.

As to `OCCCCCCC1COOC2(CCCCCCCCCCC2)OOC1`, the pEC50 in the assay on Plasmodium falciparum [1] was 6.05; in the assay with Plasmodium falciparum [2], 6.48.
Regarding `CC(=O)O[C@H]1C[C@H]2[C@@H]([C@H](OC(C)=O)C[C@@H]3CC4(CC[C@@]32C)OOC2(CCC(C)CC2)OO4)[C@@H]2CC[C@H]([C@H](C)CCC(N)=O)[C@@]12C` (some centres undefined), the negative-log IC50 (pIC50) in the assay with Plasmodium falciparum [3] was 9.24; with Plasmodium falciparum [4], 8.93.
For the molecule `OC(CN1CCC2(CC1)CC(O)c1ccc3ccccc3c1O2)c1ccc(F)c(F)c1` (centres undefined), in the assay with Plasmodium falciparum [5], the negative logarithm of the EC50 (pEC50) was 6.41.
Regarding `O=C1CCCCC12Oc1c(Cl)cccc1C2=O` (centres undefined), the IC50 in the assay with Plasmodium falciparum [6] was 29.3 mg/L (≈ 117 µM).
For `C[C@@H]1CC[C@]2(C[C@H]3C[C@H]4[C@@H]5CCC67OC6C(=O)CC[C@]7(C)[C@H]5CC[C@]4(C)[C@H]3[C@@H]2C)OC1` (some centres undefined), the pIC50 in the assay with Plasmodium falciparum [7] is 5.00; in the assay on Plasmodium falciparum [8], 5.07.
Regarding `CCCCCCCCCCCCCC1OC2CC(O)C=CC23C1C(=O)N3Cc1ccccc1` (centres undefined), the pIC50 was 5.26 in the assay with Plasmodium falciparum [9] and 6.07 in the assay on Plasmodium falciparum [10].
As for `COc1cc2c(cc1OC)C1(NCC2)C(=O)Nc2ccc(Cl)cc21` (centres undefined), the negative-log EC50 (pEC50) was 6.16 with Plasmodium falciparum [11], 5.76 with Plasmodium falciparum [12] and 5.73 in the assay with Plasmodium falciparum [13].
Regarding `COc1ccc(COCCC2NCCC23C(=O)Nc2ccccc23)cc1` (centres undefined), in the assay on Plasmodium falciparum [14], the pIC50 was 4.97.
With `O=C1C=Cc2cc(O)c(O)cc2C12C(=O)C=Cc1cc(O)c(O)cc12`, the negative logarithm of the IC50 (pIC50) in the assay on Plasmodium falciparum [15] was 5.63.
Turning to `CNCCc1cc(Br)c(OCCCNC(=O)N(C)CCc2cc(Br)c(OCCCNC(=O)C3=NO[C@]4(CC(Br)=C(OC)C(Br)=CO4)[C@@H]3O)c(Br)c2)c(Br)c1`, the IC50 in the assay on Plasmodium falciparum [16] came to 0.77 mg/L (≈ 0.676 µM); in the assay with Plasmodium falciparum [17] it was 1.03 mg/L (≈ 0.904 µM).
Take `FC1CCN(CCOc2ccc(C3CCC4(CC3)OOC3(OO4)C4CCCC3CCC4)cc2)CC1` (centres undefined): the negative-log IC50 (pIC50) in the assay with Plasmodium falciparum [18] is 8.29; in the assay with Plasmodium falciparum [19] it was 8.54; with Plasmodium falciparum [20] it was 8.07; in the assay on Plasmodium falciparum [21], 7.85; in the assay on Plasmodium falciparum [22], 8.38; in the assay with Plasmodium falciparum [23] it was 8.38. In addition, the results for the pIC50 with Plasmodium falciparum [24], in the assay on Plasmodium falciparum [25] and in the assay on Plasmodium falciparum [26] were 8.11, 8.14 and 8.38, respectively.
In the case of `CCCCCCCCCCCCC[C@@H]1C[C@@H](O)C[C@]2(CCC3(C=CC(=O)C=C3)O2)O1` [ACULEATIN A], the figures for the negative logarithm of the IC50 (pIC50) with Plasmodium falciparum [27] and in the assay on Plasmodium falciparum [28] were 6.74 and 6.70, respectively.
With `C[C@H]1[C@@H](O)O[C@@H]2O[C@@]3(C)CC[C@H]4[C@H](C)CC[C@@H]1[C@@]24OO3` [ARTENIMOL], the IC90 with Plasmodium falciparum [29] came out at 0.0027 mg/L (≈ 0.0095 µM).
